Experimental data as given in publication PMC12040169 (PLOS Biology, 2025).

Test: in vitro
Conditions: human, hela cells, % viability

Row | SMILES | viability at 28.5 h, 10 µM
1 | CCC(C(=O)N1CCC(O)(c2ccccn2)CC1)c1ccccc1 (stereo not shown) [CBK283768] | 93.1%
2 | CN1CC(C(=O)N2C3CCC2CC(c2ccc(F)cc2)C3)CC1=O (stereo not shown) [CBK283769] | 96.3%
3 | O=C(c1cc2c(s1)CCC2)N1CCn2c(nnc2C2CC2)C1 [CBK283770] | 96.6%
4 | O=c1oc(-c2cccnc2)nn1Cc1ccccc1F [CBK283774] | 87.1%
5 | COC(=O)[C@H]1CN(C(=O)c2cccs2)C[C@@H]1c1ccccc1F [CBK283775] | 87.4%
6 | CCn1cc(C(=O)N2CCCC2c2nc3ccccc3[nH]2)c(C)n1 (stereo not shown) [CBK283777] | 90.2%
7 | CCn1cc(C(=O)N2CCCCC2c2nc3ccccc3[nH]2)c(C)n1 (stereo not shown) [CBK283778] | 91.5%
8 | Cc1nn(C)cc1C(=O)N1CCCCC1c1nc2ccccc2[nH]1 (stereo not shown) [CBK283779] | 84.7%
9 | Fc1cccc(-c2nc3cnccn3c2NC2CCCC2)c1 [CBK283780] | 81.4%
10 | Cn1ccnc1C(NC(=O)N1CCCC1)c1ccc(F)c(F)c1 (stereo not shown) [CBK283782] | 89%
11 | Cn1ccnc1C(NC(=O)C1CCCC1)c1ccc(F)c(F)c1 (stereo not shown) [CBK283784] | 97%
12 | COC(=O)[C@H]1CN(C(=O)c2cscn2)C[C@@H]1c1ccc(F)cc1 [CBK283785] | 92.3%
13 | Cn1c(=O)n(CC(=O)N2CCCc3ccccc32)c2cccnc21 [CBK283790] | 86.7%
14 | CN(C(=O)Cn1c(=O)n(C)c2ncccc21)C1CCCCC1 [CBK283791] | 81.5%
15 | CC1CC(C)CN(C(=O)Cn2c(=O)n(C)c3ncccc32)C1 (stereo not shown) [CBK283794] | 93.8%
16 | Cn1c(=O)n(CC(=O)NC23CC4CC(CC(C4)C2)C3)c2cccnc21 [CBK283795] | 81.7%
17 | CCn1nc2c(C)cc3ccc(OC)cc3n2c1=O [CBK283796] | 78.3%
18 | O=C(c1cccc2ncccc12)N1CCC(c2ccncc2)CC1 [CBK283798] | 84.2%
19 | O=C(Cn1nc(-c2cc3c(s2)CCC3)oc1=O)NC1CC1 [CBK283800] | 101%
20 | O=C(NC1CC2(CCCC2)Oc2ccccc21)C1CCOC1 (stereo not shown) [CBK283802] | 84.3%
21 | CN1CCC2(CC1)CC(NC(=O)c1ccco1)c1ccccc1O2 (stereo not shown) [CBK283804] | 96.6%
22 | COc1ccccc1CC(=O)N1CCn2cc(C(F)(F)F)nc2C1 [CBK283806] | 84.5%
23 | CCn1c(=O)n(CC(=O)NC2CCCCC2)c2cccnc21 [CBK283810] | 83.6%
24 | CCn1c(=O)n(CC(=O)NCCc2ccccc2)c2cccnc21 [CBK283812] | 76.1%

Row | SMILES | viability at 28.5 h, 10 µM
25 | O=C(c1cccnc1)C1CCN(C(=O)Cc2ccc(Cl)cc2)CC1 [CBK283813] | 80.4%
26 | O=C(c1cccnc1)C1CCN(C(=O)Cc2ccccc2F)CC1 [CBK283814] | 87.5%
27 | Cc1occc1-c1nn(CCN2CCCCC2)c(=O)o1 [CBK283815] | 96.8%
28 | Cc1cccc2cc3c(nc12)OCC(=O)N(Cc1ccco1)C3 [CBK283816] | 97.6%
29 | COc1ccc2c(c1)C=C(/C=C/C1=CCN(C)CC1)CO2 [CBK283818] | 81.1%
30 | O=C(O)[C@H]1CN(C(=O)c2cccs2)C[C@@H]1c1ccccc1F [CBK283819] | 87.1%
31 | O=C(O)[C@H]1CN(C(=O)c2ccco2)C[C@@H]1c1ccccc1F [CBK283820] | 80.6%
32 | Cc1cc(C)c2cc(C)c3nn(CC(=O)N(C)C)c(=O)n3c2c1 [CBK283821] | 81.8%
33 | CCn1c(=O)n(CC(=O)NCc2ccccc2)c2cccnc21 [CBK283824] | 101%
34 | CCn1c(=O)n(CC(=O)N2C(C)CCCC2C)c2cccnc21 (stereo not shown) [CBK283825] | 102%
35 | CC(C)CC(NC(=O)c1ccco1)c1nc2cccnc2n1C (stereo not shown) [CBK283827] | 88.8%
36 | CC(NC(=O)Cc1ccc(F)cc1)c1nc2cccnc2n1C(C)C (stereo not shown) [CBK283830] | 88.7%
37 | Cn1ccnc1C(NC(=O)N1CCCCC1)c1ccc(F)c(F)c1 (stereo not shown) [CBK283832] | 107%
38 | O=C(CC1CC2CCC1C2)N1CCC(O)(c2ccccn2)CC1 (stereo not shown) [CBK283833] | 92.7%
39 | O=C(NCCn1nc(-c2cccs2)ccc1=O)c1cccs1 [CBK283836] | 77%
40 | CC(C)(C)C(=O)NCCn1nc(-c2cccs2)ccc1=O [CBK283839] | 103%
41 | O=C(NCCn1nc(-c2cccs2)ccc1=O)C1CCCC1 [CBK283840] | 104%
42 | CCCNC(=O)Cn1c(=O)n(Cc2cccs2)c2ncccc21 [CBK283843] | 101%
43 | CC(C)(C)NC(=O)Cn1c(=O)n(Cc2cccs2)c2ncccc21 [CBK283844] | 104%
44 | CC(NC(=O)c1ncoc1-c1ccc(F)cc1)c1ccccn1 (stereo not shown) [CBK283846] | 90.9%
45 | Cc1nn(Cc2ccccn2)c(=O)n2cccc12 [CBK283849] | 95.1%
46 | O=C(Cn1ncc2cccn2c1=O)NCc1ccc(F)cc1 [CBK283851] | 82.8%
47 | O=C(c1cccnc1)C1CCN(C(=O)c2ccccc2F)CC1 [CBK283853] | 95.1%
48 | O=c1[nH]nc(-c2cccs2)n1-c1cccnc1 [CBK283854] | 101%

Row | SMILES | viability at 28.5 h, 10 µM
49 | CC(C)n1c(=O)n(CC(=O)N2CCc3ccccc32)c2cccnc21 [CBK283855] | 103%
50 | CCc1nn2c(O)cc(C)nc2c1-c1cccs1 [CBK283860] | 90.7%
51 | O=C(Cn1c(=O)n(Cc2ccco2)c2ncccc21)N1CCCCC1 [CBK283862] | 89.2%
52 | O=C(CC1CCCC1)NCCn1nc(-c2ccco2)ccc1=O [CBK283864] | 106%
53 | O=c1[nH]nc(-c2cccs2)n1-c1ccncc1 [CBK283868] | 93.2%
54 | CCN(CC)C(=O)Cn1nc2c(C)cc3cc(C)ccc3n2c1=O [CBK283871] | 86.4%
55 | Cc1ccc2c(c1)cc(C)c1nn(CC(=O)N3CCCC3)c(=O)n12 [CBK283872] | 101%
56 | Cc1ccc2c(c1)cc(C)c1nn(CC(=O)NC(C)C)c(=O)n12 [CBK283874] | 83.5%
57 | Cc1ccc2c(c1)cc(C)c1nn(CC(=O)NC(C)(C)C)c(=O)n12 [CBK283875] | 87.5%
58 | Cc1cc(C)c2c(c1)cc(C)c1nn(CC(=O)NC3CC3)c(=O)n12 [CBK283877] | 83.5%
59 | Cc1cc2ccccc2n2c(=O)n(CC(=O)N3CCCC3)nc12 [CBK283880] | 101%
60 | Cc1cc2ccccc2n2c(=O)n(CC(=O)NC3CCCC3)nc12 [CBK283884] | 79.7%
61 | CC(NC(=O)c1ncoc1-c1ccccc1)c1ccccn1 (stereo not shown) [CBK283889] | 92.6%
62 | CCn1c(=O)n(CC(=O)N2CCCC3CCCCC32)c2cccnc21 (stereo not shown) [CBK283893] | 87.3%
63 | CCn1c(=O)n(CC(=O)NCc2ccc(F)cc2)c2cccnc21 [CBK283901] | 87.8%
64 | CN(C)C(=O)Cn1c(=O)n(Cc2cccs2)c2ncccc21 [CBK283902] | 81.7%
65 | CCn1c(=O)n(CC(=O)N2CCCC2)c2cccnc21 [CBK283904] | 107%
66 | Cn1c(=O)n(CC(=O)NCc2ccc(F)cc2)c2cccnc21 [CBK283908] | 86.6%
67 | Cn1c(=O)n(CC(=O)NCCc2ccccc2)c2cccnc21 [CBK283910] | 82.8%
68 | Cn1c(=O)n(CC(=O)NCc2cccc(F)c2)c2cccnc21 [CBK283911] | 105%
69 | Cc1ccnn1CCC(=O)N1CCn2cc(C(F)(F)F)nc2C1 [CBK283912] | 110%
70 | Cn1c(=O)n(CC(=O)Nc2ccc(F)cc2)c2cccnc21 [CBK283919] | 101%
71 | C=CCNC(=O)C1CCN(c2nc3ccccc3n2CC)CC1 [CBK283920] | 113%
72 | CCn1c(N2CCC(C(=O)NC3CC3)CC2)nc2ccccc21 [CBK283922] | 92.7%

Row | SMILES | viability at 28.5 h, 10 µM
73 | O=C(NC1CCCc2c1cnn2-c1ccc(F)cc1)C1CC1 (stereo not shown) [CBK283928] | 111%
74 | O=C(CN1CCCC1)NC1CCCc2c1cnn2-c1ccc(F)cc1 (stereo not shown) [CBK283930] | 91.5%
75 | CC(C)n1c(=O)n(CCN2CCCCC2)c2cccnc21 [CBK283932] | 95.4%
76 | c1ccc(CNc2c(-c3ccco3)nc3cnccn23)cc1 [CBK283933] | 90.6%
77 | O=C(Cn1ccnc1)N1CCCCC1c1nc2ccccc2[nH]1 (stereo not shown) [CBK283936] | 107%
78 | COc1ccc(-c2ocnc2C(=O)NCCc2ccccc2F)cc1 [CBK283941] | 90%
79 | O=C(CN1C(=O)N2CCN=C2c2ccccc21)N1CCCC1 [CBK283945] | 91.9%
80 | CC1CCN(C(=O)CN2C(=O)N3CCN=C3c3ccccc32)CC1 [CBK283946] | 93.6%
81 | Cc1nc2c(c(=O)[nH]1)CN(Cc1ccc(Cl)c(Cl)c1)CC2 [CBK283949] | 88.7%
82 | Cc1nc2c(c(=O)[nH]1)CN(Cc1sccc1C)CC2 [CBK283950] | 91.1%
83 | Cc1nc2c(c(=O)[nH]1)CN(Cc1cc(F)ccc1F)CC2 [CBK283953] | 86.9%
84 | C=CCNC(=O)C1CCN(c2nc3ccccc3n2C)CC1 [CBK283955] | 92%
85 | CC1CC(C)CN(C(=O)CN2C(=O)N3CCN=C3c3ccccc32)C1 (stereo not shown) [CBK283960] | 90%
86 | CN(C)C(=O)CN1C(=O)N2CCN=C2c2ccccc21 [CBK283961] | 94.7%
87 | O=C1NC2(CCN(C(=O)Cc3ccsc3)CC2)Nc2ccccc21 [CBK283963] | 94.7%
88 | COCCn1c(=O)n(Cc2ccccc2F)c2cccnc21 [CBK283965] | 88.6%
89 | Clc1ccccc1CN1CCC(n2cnc3cccnc32)CC1 [CBK283967] | 105%
90 | c1csc(CN2CCC(n3cnc4cccnc43)CC2)c1 [CBK283968] | 101%
91 | Cc1nc2c(c(=O)[nH]1)CCN(Cc1ccc(-c3ccccc3)cc1)C2 [CBK283970] | 94.4%
92 | Cc1csc(NC(=O)c2ncoc2-c2cccs2)n1 [CBK283972] | 88.2%
93 | O=C(NCc1cccnc1)c1ncoc1-c1cccs1 [CBK283974] | 87.5%
94 | O=C(Nc1nccs1)c1ncoc1-c1cccs1 [CBK283975] | 102%
